Measurements: US20240166630A1, “INDOLE DERIVATIVES AS SEROTONERGIC AGENTS USEFUL FOR THE TREATMENT OF DISORDERS RELATED THERETO” (Mindset Pharma Inc., priority 2021, published 2024)
pEC50, pIC50, pKi: −log10 of the molar value.

What was measured:
[1] = Liver microsomes stability with NADPH, rat; settings: for Remaining Percentage (%) after 60 min Rat: rat liver microsomes, with NADPH, 2 μM; for half-life at 2 μM / microsomal CLint at 2 μM: rat, microsomes
[2] = target: T1, human 5-HT2A (h5-HT2A) receptor (Homo sapiens, UniProt P28223); test: FLIPR assay, human 5-HT2A receptor under agonist mode; format: cell-based
T1 construct: expressed in transfected cells; kept under G418 and hygromycin B selection
Protocol: I. Assessment of the Activated Effect of Compounds of Formula I-B Targeting on Human 5-HT2A (h5-HT2A) Receptor Under Agonist Mode:
1. The cells were cultured in cell culture medium (DMEM containing 10% FBS, 1× penicillin-streptomycin 300 μg/ml G418 and 100 μg/ml hygromycin B) at 37° C., 5% (v/v) CO2.
2. One day before the assays, the cells were detached using TrypLE™ Express and count cells using cell counter.
3. 20000 cells/well were seeded in 30 μl/well culture medium to a 384-well cell plate and incubated the cells overnight at 37° C., 5% (v/v) CO2.
4. On the assay day, 2×dye solution was prepared following the manual of the FLIPR® Calcium 6 Assay Kit: i. The dye was diluted with assay buffer (20 mM HEPES in 1×HBSS, PH7.4); ii. probenecid was added to the final concentration of 5 mM; iii. Vortexed vigorously for 1-2 minutes.
5. Medium was removed from cell plate by flicking the cell plate on towel papers.
7. The cell plate was placed on plate shaker, the plate agitated at 600 rpm for 2 minutes. The plate was incubated at 37° C. for 2 hours followed by additional 15-minute incubation at 25° C.
8. 3×compound was prepared in assay buffer: a. Reference compounds were diluted to required concentration with DMSO. The compounds were added to a 384-well compound plate; b. Serial dilutions were performed; c. 10 mM test compounds were added to the compound plate, 3-fold serial dilutions were performed. […] 20 μl/well assay buffer was added to the compound plate; f.
9. The cell plate, compound plate and tips were placed into FLIPR, 10 μl of 3× compound was transferred to the cell plate per well with FLIPR.
i. The normalized fluorescence reading (RFU) was calculated as shown follow, while Fmax and Fmin stand for maximum and minimum of calcium signal during defined time window: RFU=Fmax−Fmin
ii. The percentage activation was calculated by using following equation: […]
iii. EC50 was calculated by fitting % activation against log of compound concentrations with Hill equation using Xlfit.

human 5-HT2A [3] = target: T2, human 5-HT2A (Homo sapiens, UniProt P28223); test: Radioligand binding assay on human 5-HT2A receptor ([3H]-ketanserin)
Protocol: i. The assay buffer was prepared following the table below;
iii. Prepared (v/v) DMSO as follows: a. […] The plates were sealed and incubated at 4° C. for 3 hrs;
iv. Preparation of assay plates: a.
vi. The plates were sealed and incubated at 27° C. for 90 min.

[4] = Liver microsomes stability with NADPH, human; settings: for Remaining Percentage (%) after 60 min Human: 2 μM; for half-life at 2 μM / microsomal CLint at 2 μM: human, microsomes
Protocol: (§1) The objective of this study was to estimate in vitro metabolic stability of representative compounds of the application in pooled human and male mouse liver microsomes. The concentrations of parent compounds in reaction systems were evaluated by LC-MS/MS for estimating the stability in pooled human and male mouse liver microsomes. The in vitro intrinsic clearances of test compounds were determined as well.
(§2) A master solution in the “Incubation Plate” containing phosphate buffer, ultra-pure H2O, MgCl2 solution and liver microsomes was made according to Table 3. The mixture was pre-warmed at 37° C. water bath for 5 minutes.
(§3) 40 μL of 10 mM NADPH solution was added to each well. The final concentration of NADPH was 1 mM. The negative control samples were prepared by replacing NADPH with 40 μL of ultra-pure H2O. Samples were prepared in duplicate. Negative controls were prepared in singlet.
(§4) The reaction was started with the addition of 4 μL of 200 μM test compounds or control compounds to each master solution to get the final concentration of 2 μM. This study was performed in duplicate.
(§5) Aliquots of 50 μL were taken from the reaction solution at 0, 15, 30, 45 and 60 minutes. The reaction solutions were stopped by the addition of 4 volumes of cold methanol with IS (100 nM alprazolam, 200 nM imipramine, 200 nM labetalol and 2 μM ketoprofen). Samples were centrifuged at 3,220 g for 40 minutes. Aliquot of 90 μL of the supernatant was mixed with 90 μL of ultra-pure H2O and then was used for LC-MS/MS analysis.
(§6) LC/MS analysis was performed for all samples from this study using a Shimadzu liquid chromatograph separation system equipped with degasser DGU-20A5R; solvent delivery unit LC-30AD; system controller SIL-30AC; column oven CTO-30A; CTC Analytics HTC PAL System; Mass spectrometric analysis was performed using an Triple Quad™ 5500 instrument.
(§7) All calculations were carried out using Microsoft Excel. Peak area ratios of test compound to internal standard (listed in the below table) were determined from extracted ion chromatograms.
(§8) All calculations were carried out using Microsoft Excel. Peak areas were determined from extracted ion chromatograms. The slope value, k, was determined by linear regression of the natural logarithm of the remaining percentage of the parent drug vs. incubation time curve.
(§9) The in vitro half-life (in vitro t1/2) was determined from the slope value:
(§10) Conversion of the in vitro t1/2 (min) into the in vitro intrinsic clearance (in vitro CLint, in μL/min/mg proteins) was done using the following equation (mean of duplicate determinations): […]

[5] = Liver microsomes stability with NADPH, mouse; settings: for half-life at 2 μM / microsomal CLint at 2 μM: male, mouse, microsomes; for Remaining Percentage (%) after 60 min Mouse: mouse liver microsomes, with NADPH, 2 μM
Protocol: as §1, §2, §3, §4, §5, §6, §7, §8, §9, §10

[6] = rapid first-pass metabolism by monoamine oxidase; cited from earlier work
human 5-HT2A [7] = target: T2, human 5-HT2A; settings: read-out: binding affinity 5-HT2A; literature value; cited from earlier work
[8] = human liver microsomes, with NADPH

T1 sequence (P28223 whole entry): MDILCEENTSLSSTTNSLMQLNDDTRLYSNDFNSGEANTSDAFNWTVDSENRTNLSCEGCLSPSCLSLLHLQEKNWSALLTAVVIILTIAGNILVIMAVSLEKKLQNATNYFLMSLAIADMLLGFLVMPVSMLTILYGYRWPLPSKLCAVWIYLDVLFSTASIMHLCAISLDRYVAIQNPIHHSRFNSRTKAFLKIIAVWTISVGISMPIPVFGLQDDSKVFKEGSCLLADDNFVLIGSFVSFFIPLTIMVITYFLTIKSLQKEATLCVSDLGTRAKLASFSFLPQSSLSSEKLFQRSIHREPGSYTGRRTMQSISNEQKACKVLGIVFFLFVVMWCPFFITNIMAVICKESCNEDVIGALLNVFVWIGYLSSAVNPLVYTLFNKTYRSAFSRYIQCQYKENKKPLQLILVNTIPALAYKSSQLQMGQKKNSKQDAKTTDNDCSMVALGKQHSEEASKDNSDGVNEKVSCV
T2 sequence (P28223 whole entry): as above

Row | SMILES | Remaining Percentage (%) after 60 min Rat [1] [%] | half-life at 2 μM [1] [h] | microsomal CLint at 2 μM [1] [µL/min/mg] | pEC50 [2] | pIC50 (human 5-HT2A [3]) | Remaining Percentage (%) after 60 min Human [4, 8] [%] | half-life at 2 μM [5] [h] | microsomal CLint at 2 μM [5] [µL/min/mg] | Remaining Percentage (%) after 60 min Mouse [5] [%] | oral activity [6] | pKi (human 5-HT2A [7]) | CLint (μL/min/mg protein) Human [4, 8] [μL/min/mg protein] | Half-Life t1/2 (min) Human [4, 8] | half-life at 2 μM [4] [h] | microsomal CLint at 2 μM [4] [µL/min/mg]
1 | CN(C)CCc1c[nH]c2ccccc12 [DMT, N,N-dimethyltryptamine, reference compound] | 17.29 | 0.378 | 61 | 6.00 to 7.00 | 5.30 to 6.30 | 0.72 | 0.842 | 27.4 | 65.90 | not orally active | 9.63 |  |  |  | 
2 | COc1ccc2[nH]cc(CCN(C)C)c2c1 [Compound 5-MeO-DMT, 5-methoxy-N,N-dimethyltryptamine, reference compound] | 16.02 | 0.378 | 61 |  |  | 4.82 | 0.842 | 27.4 | 89.36 | not orally active |  | 101.08 | 13.75 min |  | 
3 | [2H]C([2H])([2H])Oc1ccc2[nH]cc(C([2H])([2H])[C@H]3CCCN3C([2H])([2H])[2H])c2c1 [I-B-12, (R)-5-(methoxy-d3)-3-((1-(methyl-d3)pyrrolidin-2-yl)methyl-d2)-1H-indole] | 35.87 | 0.676 | 29 | > 7.00 | > 6.30 | 78.24 | 1.51 | 38.4 | 63.17 |  |  |  |  | 2.82 | 6.86
4 | [2H]C([2H])(c1c[nH]c2ccc(OC)cc12)[C@H]1CCCN1 [I-B-16, (R)-5-methoxy-3-(pyrrolidin-2-ylmethyl-d2)-1H-indole] | 34.51 | 0.651 | 29.5 | > 7.00 | > 6.30 | 85.35 | 1.36 | 40.6 | 60.16 |  |  |  |  | 4.38 | 5.01
5 | [2H]C([2H])([2H])N1CCC[C@@H]1Cc1c[nH]c2ccc(OC)cc12 [I-B-9, (R)-5-methoxy-3-((1-(methyl-d3)pyrrolidin-2-yl)methyl)-1H-indole] |  |  |  | > 7.00 | > 6.30 |  |  |  |  |  |  |  |  |  | 
6 | [2H]C([2H])(c1c[nH]c2ccccc12)[C@H]1CCCN1 [I-B-8, (R)-3-(pyrrolidin-2-ylmethyl-d2)-1H-indole] | 38.89 | 0.734 | 31.5 | 6.00 to 7.00 | 5.30 to 6.30 | 91.11 | 1.22 | 18.9 | 56.72 |  |  |  |  | 7.44 | 3.1
7 | [2H]C([2H])(c1c[nH]c2ccc(OC)cc12)[C@H]1CCCN1C([2H])([2H])[2H] [I-B-13, (R)-5-methoxy-3-((1-(methyl-d3)pyrrolidin-2-yl)methyl-d2)-1H-indole] |  |  |  | > 7.00 | > 6.30 |  |  |  |  |  |  |  |  |  | 
8 | [2H]C([2H])(c1c[nH]c2ccccc12)[C@H]1CCCN1C [I-B-2, (R)-3-((1-methylpyrrolidin-2-yl)methyl-d2)-1H-indole] | 0.81 | 0.144 | 46.3 | > 7.00 | > 6.30 | 64.96 | 1.02 | 47.1 | 50.81 |  |  |  |  | 1.61 | 9.64
9 | [2H]C([2H])([2H])Oc1ccc2[nH]cc(C[C@H]3CCCN3)c2c1 [I-B-14, (R)-5-(methoxy-d3)-3-(pyrrolidin-2-ylmethyl)-1H-indole] | 92.44 | 8.82 | 4.33 | > 7.00 | > 6.30 | 110.97 | 8.15 | 10.9 | 91.85 |  |  |  | ∞ |  | 
10 | [2H]C([2H])(c1c[nH]c2ccc(OC)cc12)[C@H]1CCCN1C [I-B-10, (R)-5-methoxy-3-((1-methylpyrrolidin-2-yl)methyl-d2)-1H-indole] | 35.87 | 0.676 | 29 | > 7.00 | > 6.30 | 78.24 | 1.51 | 38.4 | 63.17 |  |  |  |  | 2.82 | 6.86
11 | [2H]C([2H])([2H])Oc1ccc2[nH]cc(C([2H])([2H])[C@H]3CCCN3)c2c1 [I-B-15, (R)-5-(methoxy-d3)-3-(pyrrolidin-2-ylmethyl-d2)-1H-indole] |  |  |  | > 7.00 | > 6.30 |  |  |  |  |  |  |  |  |  | 
12 | [2H]C([2H])([2H])Oc1ccc2[nH]cc(C[C@H]3CCCN3C([2H])([2H])[2H])c2c1 [I-B-11, (R)-5-(methoxy-d3)-3-((1-(methyl-d3)pyrrolidin-2-yl)methyl)-1H-indole] | 34.51 | 0.651 | 29.5 | > 7.00 | > 6.30 | 85.35 | 1.36 | 40.6 | 60.16 |  |  |  |  | 4.38 | 5.01
